Source: PMC5933261, “A phase 1 dose-escalation study of veliparib with bimonthly FOLFIRI in patients with advanced solid tumours” (British Journal of Cancer, 2018)
Entries after “also recorded” stand apart in the source; their conditions may differ.

Legend:
[1] = test system: patients with advanced solid tumours; test: Treatment-emergent adverse events (NCI CTCAE version 4.0); type: in vivo, human
Description: The sample size was based on clinical justification.

[2] = test system: triple-negative breast cancer; set-up: method as in doi:10.1158/1538-7445.AM2015-CT325; details: veliparib in combination with irinotecan; cohort with germline BRCA mutation; cited from earlier work
[3] = Veliparib pharmacokinetics, cycle 1 day 15; type: in vivo, human; details: co-administered with FOLFIRI; 10–270 mg BID
[4] = Pharmacokinetics of FOLFIRI components with and without veliparib (relative bioavailability); details: cycle 1 day 15 vs cycle 1 day 1
Protocol: Treatment-emergent adverse events (TEAEs) were assessed from the time of study drug administration until 30 days following discontinuation of study drug. TEAEs were assessed according to the National Cancer Institute Common Terminology Criteria for Adverse Events version 4.0. In dose-escalation cohorts, blood samples were collected on day 15 of cycle 1 for veliparib PK, and on days 1 and 15 of cycle 1 for PK assessment of the FOLFIRI components irinotecan, SN-38, folinic acid (leucovorin), and 5-FU. Exploratory efficacy end points included objective response rate (ORR), time to disease progression (TTP), duration of overall response (DOR), and ECOG performance status. Objective response rate included confirmed complete response (CR) and partial response (PR). Objective response rate evaluation was based on Response Evaluation Criteria in Solid Tumours version 1.1. Objective response rate was calculated for all patients with one or more measurable lesions at baseline. Time to disease progression was defined as the number of days from the date the patient started study drug to the date of the patient’s disease progression. Duration of overall response was defined as the number of days from the day criteria were met for CR or PR (whichever was recorded first) to the date that PD was objectively documented. If a patient was still responding, the patient’s data were censored at the date of the last study visit at which a tumour assessment was performed. Analyses of change and/or percentage change from baseline for tumour size were performed for each scheduled post-baseline visit and for the final visit. ECOG performance status was assessed at all visits, with descriptive statistics summarised for each assessment. In addition, a mean change from baseline to each assessment time was summarised.
The sample size was based on clinical justification. No specific statistical hypothesis tests were planned, with descriptive statistics used for the analysis of safety, PK, and tumour response data. The study population for all safety and preliminary efficacy analyses included patients who received one or more doses of study medication. Data from parts 1–3 of the dose-escalation cohort were combined for assessment of the effect of veliparib on the PK of irinotecan, SN-38, and folinic acid. Linear mixed effects models were performed on natural logarithmically transformed maximum plasma concentration (Cmax) and area under the plasma or serum concentration-time curve (AUC) to compare exposure of irinotecan, SN-38, and folinic acid with and without the administration of veliparib. Point estimates and the corresponding 90% confidence intervals (CIs) of the ratio of central values with and without veliparib administration were calculated.

[5] = test system: patients with advanced solid tumours; set-up: method as in PMID 26842236; details: veliparib 40 mg BID days 1–14 of a 21-day cycle with irinotecan 100 mg/m^2 day 1 and 8; cited from earlier work
[6] = veliparib plus FOLFIRI, Combined RP2D n = 31, all grades
[7] = veliparib plus FOLFIRI, Combined RP2D n = 31, grade 3/4
[8] = veliparib plus FOLFIRI, Part 1 n = 67, all grades
[9] = veliparib plus FOLFIRI, Part 1 n = 67, grade 3/4
[10] = veliparib plus FOLFIRI, Parts 2 and 3 n = 25, all grades
[11] = veliparib plus FOLFIRI, Parts 2 and 3 n = 25, grade 3/4
[12] = veliparib plus FOLFIRI, Total n = 92, all grades
[13] = veliparib plus FOLFIRI, Total n = 92, grade 3/4
[14] = veliparib plus FOLFIRI, all treated patients (92)
[15] = veliparib plus FOLFIRI, all treated patients (92), any grade

C[C@]1(c2nc3c(C(N)=O)cccc3[nH]2)CCCN1 [veliparib, Veliparib]
Patients with TEAEs that led to death within 30 days of the last veliparib dose ([1]; considered not related or probably not related to veliparib and FOLFIRI): Four | Patients with a TEAE that led to death within 63 days after the last veliparib dose ([1]; disease progression, considered not related or probably not related): One | TEAE Alopecia [1, 6]: 16 (51.6) n (%) | TEAE Anaemia [1, 6]: 15 (48.3) n (%) | TEAE Constipation [1, 6]: 9 (29.0) n (%) | TEAE Decreased appetite [1, 6]: 7 (22.5) n (%) | TEAE Diarrhoea [1, 6]: 17 (54.8) n (%) | TEAE Fatigue [1, 6]: 13 (41.9) n (%) | TEAE Nausea [1, 6]: 23 (74.1) n (%) | TEAE Neutropenia [1, 6]: 25 (80.6) n (%) | TEAE Vomiting [1, 6]: 14 (45.1) n (%) | TEAE Alopecia [1, 7]: 0 (0.0) n (%) | TEAE Anaemia [1, 7]: 5 (16.1) n (%) | TEAE Constipation [1, 7]: 0 (0.0) n (%) | TEAE Decreased appetite [1, 7]: 0 (0.0) n (%) | TEAE Diarrhoea [1, 7]: 5 (16.1) n (%) | TEAE Fatigue [1, 7]: 0 (0.0) n (%) | TEAE Nausea [1, 7]: 1 (3.2) n (%) | TEAE Neutropenia [1, 7]: 17 (54.8) n (%) | TEAE Vomiting [1, 7]: 1 (3.2) n (%) | TEAE Alopecia [1, 8]: 31 (46.2) n (%) | TEAE Anaemia [1, 8]: 27 (40.2) n (%) | TEAE Constipation [1, 8]: 18 (26.8) n (%) | TEAE Decreased appetite [1, 8]: 18 (26.8) n (%) | TEAE Diarrhoea [1, 8]: 40 (59.7) n (%) | TEAE Fatigue [1, 8]: 27 (40.2) n (%) | TEAE Nausea [1, 8]: 41 (61.1) n (%) | TEAE Neutropenia [1, 8]: 41 (61.1) n (%) | TEAE Vomiting [1, 8]: 32 (47.7) n (%) | TEAE Alopecia [1, 9]: 0 (0.0) n (%) | TEAE Anaemia [1, 9]: 7 (10.4) n (%) | TEAE Constipation [1, 9]: 1 (1.4) n (%) | TEAE Decreased appetite [1, 9]: 0 (0.0) n (%) | TEAE Diarrhoea [1, 9]: 5 (7.4) n (%) | TEAE Fatigue [1, 9]: 3 (4.4) n (%) | TEAE Nausea [1, 9]: 2 (2.9) n (%) | TEAE Neutropenia [1, 9]: 26 (38.8) n (%) | TEAE Vomiting [1, 9]: 3 (4.4) n (%) | TEAE Alopecia [1, 10]: 9 (36.0) n (%) | TEAE Anaemia [1, 10]: 14 (56.0) n (%) | TEAE Constipation [1, 10]: 10 (40.0) n (%) | TEAE Decreased appetite [1, 10]: 13 (52.0) n (%) | TEAE Diarrhoea [1, 10]: 16 (64.0) n (%) | TEAE Fatigue [1, 10]: 17 (68.0) n (%) | TEAE Nausea [1, 10]: 15 (60.0) n (%) | TEAE Neutropenia [1, 10]: 20 (80.0) n (%) | TEAE Vomiting [1, 10]: 12 (48.0) n (%) | TEAE Alopecia [1, 11]: 0 (0.0) n (%) | TEAE Anaemia [1, 11]: 2 (8.0) n (%) | TEAE Constipation [1, 11]: 1 (4.0) n (%) | TEAE Decreased appetite [1, 11]: 0 (0.0) n (%) | TEAE Diarrhoea [1, 11]: 0 (0.0) n (%) | TEAE Fatigue [1, 11]: 0 (0.0) n (%) | TEAE Nausea [1, 11]: 1 (4.0) n (%) | TEAE Neutropenia [1, 11]: 13 (52.0) n (%) | TEAE Vomiting [1, 11]: 2 (8.0) n (%) | TEAE Alopecia [1, 12]: 40 (43.5) n (%) | TEAE Anaemia [1, 12]: 41 (44.6) n (%) | TEAE Constipation [1, 12]: 28 (30.4) n (%) | TEAE Decreased appetite [1, 12]: 31 (33.6) n (%) | TEAE Diarrhoea [1, 12]: 56 (60.9) n (%) | TEAE Fatigue [1, 12]: 44 (47.8) n (%) | TEAE Nausea [1, 12]: 56 (60.9) n (%) | TEAE Neutropenia [1, 12]: 61 (66.3) n (%) | TEAE Vomiting [1, 12]: 44 (47.8) n (%) | TEAE Alopecia [1, 13]: 0 (0.0) n (%) | TEAE Anaemia [1, 13]: 9 (9.8) n (%) | TEAE Decreased appetite [1, 13]: 0 (0.0) n (%) | TEAE Diarrhoea [1, 13]: 5 (5.4) n (%) | TEAE Fatigue [1, 13]: 3 (3.2) n (%) | TEAE Nausea [1, 13]: 3 (3.2) n (%) | TEAE Neutropenia [1, 13]: 39 (42.4) n (%) | TEAE Vomiting [1, 13]: 5 (5.4) n (%) | Grade 3 or 4 TEAE anaemia [1, 14]: 9.8% | Grade 3 or 4 TEAE neutropenia [1, 14]: 42.4% | Patients who discontinued veliparib due to TEAEs [1, 14]: 5.4% | Patients with ≥1 grade 3 or 4 TEAEs [1, 14]: 67.4% | Patients with ≥1 treatment-emergent serious AEs (SAEs) [1, 14]: 38.0% | Serious AE PD [1, 14]: 2.2% | Serious AE abdominal pain [1, 14]: 2.2% | Serious AE dehydration [1, 14]: 2.2% | Serious AE febrile neutropenia [1, 14]: 2.2% | Serious AE intestinal obstruction [1, 14]: 2.2% | Serious AE malignant neoplasm progression [1, 14]: 2.2% | Serious AE nausea [1, 14]: 2.2% | Serious AE pyrexia [1, 14]: 4.3% | Serious AE vomiting [1, 14]: 3.3% | TEAE alopecia, patients [1, 15]: 43.5% | TEAE anaemia, patients [1, 15]: 44.6% | TEAE diarrhoea, patients [1, 15]: 60.9% | TEAE fatigue, patients [1, 15]: 47.8% | TEAE nausea, patients [1, 15]: 60.9% | TEAE neutropenia, patients [1, 15]: 66.3% | TEAE vomiting, patients [1, 15]: 47.8% | Patients who experienced one or more TEAEs ([1]; veliparib plus FOLFIRI, treated patients (92)): All treated patients | Preliminary response rate [2]: 88% | Dose proportionality of veliparib exposure (Cmax, AUC) [3]: approximately dose-proportional; also recorded: approximate dose proportionality | Effect of veliparib on the pharmacokinetics of FOLFIRI components [4]: no significant effect | Effect of veliparib on the pharmacokinetics of FOLFIRI components ([4]; listed as Veliparib): no effect | Tolerability [5]: well tolerated
